Key:
[1] = tested on: angiotensin II receptor; assay: Angiotensin II Receptor Binding Assay ([3H] angiotensin II binding inhibition); conditions: [3H] angiotensin II ligand; 60 minutes, 25° C.; test concentration not given
Procedure: In accordance with the procedure disclosed in Chiu, A. T. et al., Eur. J. Pharm., 157, 13(1981), a ligand marked with a radioisotope was reacted with an angiotensin II receptor and the reactant was filtered with a glass fiber to remove unreacted ligand. After washing the filter, the amount of the remaining isotope was measured to determine the binding activity of the ligand, as described below in detail.
Sprague-Dawley rats and Wistar rats of 250 to 350 g(from The Korea Research Institute of Chemical Technology) were tested and the test procedures were carried out at 4° C., unless otherwise specified. Adrenal gland was separated from the Sprague-Dawley rats(liver, in the case of Wistar rats) into cortex and medulla. The separated adrenal cortex and medulla were washed with a sucrose buffer solution (0.2M sucrose, 1 mM EDTA, 10 mM Tris, pH 7.2) and homogenized in the same buffer solution by using a Teflon pestle and a Brinkmann homogenizer. The homogenates were centrifuged at 3,000 Xg for 10 minutes to remove precipitates and further centrifuged at 12,000 Xg for 13 minutes. The final supernatants were centrifuged at 102,000 Xg for 1 hour to obtain precipitates, which were washed with a Tris buffer solution(50 mM Tris, 5 mM MgCl2, pH 7.2) and re-centrifuged at 102,000 Xg for 1 hour. The resulting precipitates were immediately processed at the following step or stored at -70° C.
The precipitates were suspended in a Tris buffer solution. The amount of protein was determined by using a Bio-Rad DC protein analyzing kit and the protein concentration was adjusted to the amounts of: 0.2 to 0.3 mg/ml(Sprague-Dawley rat: adrenal cortex), 1.5 to 2.0 mg/ml(Sprague-Dawleyrat: adrenal medulla), and 1.5 to 2.0 mg/ml(Wistar rat: liver). To the suspension, bovine serum albumin(BSA) was added to a concentration of 0.25 wt % and the resultant was immediately processed at the following step or stored at -70° C.
(ii) Measurement of angiotensin II receptor binding capacity 50 μl(based on ligand) of [^3 H] angiotensin II(NEN, NET-446) and 10 μl of each of the test compounds with various concentrations were added to the buffer solution(50 mM Irris(pH 7.2), 5 mM MgCl2, 0.25% BSA) to adjust the final volume to be 0.5 ml. 100 μl of the receptor suspension was added thereto and the resulting solution was reacted for 60 minutes while stirring in a water bath at 25° C. 3 ml of cold buffer solution for analysis was added to cease the reaction. The isotope which was bound to the receptor was isolated from the resultant by using Brandel Cell Harvester System with Whatman glass fiber GF/C. After washing the filter, the radioactivity of the filter was determined by using a liquid scintillation counter. Binding inhibition(%) of the test compound was calculated as follows:
Binding Inhibition(%)=[{(T--B)-(S--B)}/(T--B)]×100
wherein T is cpm of the reaction product untreated with the test compound, S is cpm of the reaction product treated with the test compound, and B is cpm of blank test.

[2] = tested on: renal hypertensive rat; assay: Blood pressure lowering effect in renal hypertension (renal hypertensive rats, intravenous or oral); assay type: in vivo, male Sprague-Dawley rats; conditions: read-out: Maxium Blood Pressure Lowering Effect(%)
Text: (§1) To induce renal hypertension, left renal artery of 4 week-old male Sprague-Dawley rats(from The Korea Research Institute of Chemical Technology) was ligated. The rats were anesthetized with ether and the surgical region on the left abdomen of the rat was shaved, disinfected, and then incised about 1 cm vertically. The renal artery near abdominal aorta was isolated carefully from surrounding tissues and veins, and then ligated completely with a suture(4/0 sterile surgical silk). The muscular strata and skin of the surgical area were sutured with a suture(4/0 sterile surgical silk). The surgical region was disinfected to prevent infection and thereafter, 200 to 250 mg/Kg/day of cephazolin sodium was injected intramuscularly for 2 days. 6 to 8 days after the ligation, rats showing systolic pressure of more than 180 mmHg were selected for renal hypertension test. The blood pressure was determined by a tail-cuff method from the tail under unanesthetized condition(Gerold, M. et al., Arzneimittrel-Forsch, 18, 1285(1968)).
(§2) Each of the compounds to be tested was administered intravenously or orally into the renal hypertensive rat. The blood pressure of the rats was determined by direct method(Chiu, A. T. et al., J. Pharmacol. Exp. Ther. 250, 867(1989)) using a catheter. The rats were anesthetized with ketamine hydrochloride(125 mg/kg, i.p.) and a catheter was filled with saline and inserted into a carotid artery and carotid vein. The surgical area was sutured with a metal clip. The rats were relaxed at least 3 hours and the catheter in the carotid artery was adapted to an isotec pressure transducer to determine their blood pressure and heart rate with a physiograph(Linearcorder WR3310). After the blood pressure was stabilized, the test compound was administered intravenously or orally. For intravenous administration, the administered volume and washing volume were 1.0 ml/Kg and 0.2 ml, respectively. The blood pressure and heart rate were measured in regular intervals up to 24 hours after the administration of the test compound and compared with those measured after the administration of the control compound Losartan.
(§3) The test compound was dissolved in 0.05N KOH for intravenous administration and suspended in Tween 80 for oral administration.

[3] = tested on: renal hypertensive rat; assay: Blood pressure lowering effect on oral administration to rats at several doses; assay type: in vivo, male Sprague-Dawley rats
Text: as §1, §2, §3
(iii) Blood pressure lowering effect The present compounds, Losartan(Dup 753) and the Merck compound were administrated orally to rats in 10, 3, 1, 0.3 and 0.1 mg/kg under the same condition as in (ii) and the blood pressure lowering effect was determined.

[4] = tested on: unanesthetized dogs; assay: Blood pressure lowering effect in unanesthetized dogs (furosemide treated); assay type: in vivo, dog; set-up: Maximum blood pressure lowering effect in a dog: unit not given here; conditions: oral
Procedure: A number of dogs were fed freely in a feeding room and those weighing 7 to 12 kg in good health were selected regardless of their gender.
The test dogs were anesthetized with 30 mg/kg of pentobarbital sodium by intravenous injection and the left femoral artery and femoral vein were separated carefully. Silicone catheter, specially prepared and filled with saline treated with heparin(1,000 IU/ml), was cannulated into the blood vessels. After the surgery, the dogs were constrained to measure their blood pressure continuously with Gould 2000 physiograph adapted to a Grass P23 XL pressure transducer; and their heart rates were monitored with ECG/Biotacho amplifier. The dogs were tested at least 2 days after the surgery.
10 mg/kg of furosemide was injected intramuscularly 18 hours(in case of intravenous injection, 2 hours) before the beginning of the test (administration of the test compound) to improve the activity of renin in blood plasma. After the injection of furosemide, neither food nor water was provided. The test compound was suspended in Tween 80 and administered in an amount of 20 mg/kg orally. The blood pressure and heart rate were measured up to 8 hours after the administration of each test compound.
The maximum blood pressure lowering effect of the present compounds and the control compounds were determined in different amounts of administration using the same method as […]

[5] = tested on: renal hypertensive rats; assay: Duration of action in renal hypertensive rats; assay type: in vivo, male Sprague-Dawley rats; conditions: oral; for blood pressure lowering effect with time: 1 mg/kg
Text: as §1, §2
The present(Example 28) and control(Merck) compounds were tested using the hypertensive rats of test 2(i). 1 mg or 3 mg/kg of each compound was administered orally and blood pressure lowering effect with time was determined to measure the duration of action of the compounds.

CCCCc1nc2cc(-c3ccccc3)c(C(OC)OC)nc2n1Cc1ccc(-c2ccccc2-c2nnn[nH]2)cc1 [Example 1, 2-butyl-5-dimethoxymethyl-6-phenyl-3-[2'-(1H-tetrazol-5-yl)biphenyl-4-ylmethyl]-3H-imidazo[4,5-b]pyridine]
Binding Inhibition(%) [1]: 77.8%
change in vivo at 3 mg [2]: -40%
blood pressure lowering effect ([3]; 1 mg/kg): 25%
blood pressure lowering effect ([3]; 3 mg/kg): 38%
Maximum blood pressure lowering effect in a dog ([4]; 1 mg/kg): 15
Maximum blood pressure lowering effect in a dog ([4]; 3 mg/kg): 35
Maximum blood pressure lowering effect in a dog ([4]; 10 mg/kg): 41
Blood pressure variation with time ([4]; dogs, 3 mg, 0.5 hr): -31.3%
Blood pressure variation with time ([4]; dogs, 3 mg, 1 hr): -32.6%
Blood pressure variation with time ([4]; dogs, 3 mg, 2 hr): -34.0%
Blood pressure variation with time ([4]; dogs, 3 mg, 4 hr): -33.0%
Blood pressure variation with time ([4]; dogs, 3 mg, 6 hr): -30.1%
Blood pressure variation with time ([4]; dogs, 3 mg, 8 hr): -25.9%

CCCCc1nc2c(C)c(-c3ccccc3)c(C(OC)OC)nc2n1Cc1ccc(-c2ccccc2-c2nnn[nH]2)cc1 [Example 28, 2-butyl-5-dimethoxymethyl-6-phenyl-7-methyl-3-[2'-(1H-tetrazol-5-yl)-biphenyl-4-ylmethyl]-3H-imidazo[4,5-b]pyridine]
Binding Inhibition(%) [1]: 50.5%
change in vivo at 1 mg ([2]; 1 mg): -47%
blood pressure lowering effect ([3]; 0.3 mg/kg): 13%
blood pressure lowering effect ([3]; 1 mg/kg): 47%
blood pressure lowering effect compared with the Merck compound ([3]; Table 2): far superior effect
Maximum blood pressure lowering effect in a dog ([4]; 0.1 mg/kg): 9
Maximum blood pressure lowering effect in a dog ([4]; 0.3 mg/kg): 18
Maximum blood pressure lowering effect in a dog ([4]; 1 mg/kg): 33
Blood pressure variation with time ([4]; dogs, 1.0 mg, 0.5 hr): -3.3%
Blood pressure variation with time ([4]; dogs, 1.0 mg, 1 hr): -18.9%
Blood pressure variation with time ([4]; dogs, 1.0 mg, 2 hr): -27.7%
Blood pressure variation with time ([4]; dogs, 1.0 mg, 4 hr): -33.3%
Blood pressure variation with time ([4]; dogs, 1.0 mg, 6 hr): -29.5%
Blood pressure variation with time ([4]; dogs, 1.0 mg, 8 hr): -27.1%
duration of action compared with the Merck compound ([5]; 1 mg/kg versus Merck compound 3 mg/kg): far longer duration of action
blood pressure lowering effect with time ([5]; 0 min): 0%
blood pressure lowering effect with time ([5]; 10 min): -16%
blood pressure lowering effect with time ([5]; 20 min): -17%
blood pressure lowering effect with time ([5]; 30 min): -18%
blood pressure lowering effect with time ([5]; 60 min): -21%
blood pressure lowering effect with time ([5]; 90 min): -34%
blood pressure lowering effect with time ([5]; 120 min): -33%
blood pressure lowering effect with time ([5]; 240 min): -46%
blood pressure lowering effect with time ([5]; 360 min): -47%
blood pressure lowering effect with time ([5]; 1320 min): -25%
blood pressure lowering effect with time ([5]; 1440 min): -28%

CCCCc1nc(Cl)c(CO)n1Cc1ccc(-c2ccccc2-c2nn[nH]n2)cc1 [Losartan(Dup 753), Losartan, reference compound]
Binding Inhibition(%) [1]: 48.0%
change in vivo at 3 mg [2]: -30%
blood pressure lowering effect ([3]; 3 mg/kg): 30%
blood pressure lowering effect ([3]; 10 mg/kg): 46%
Maximum blood pressure lowering effect in a dog ([4]; 3 mg/kg): 13
Maximum blood pressure lowering effect in a dog ([4]; 10 mg/kg): 23
Blood pressure variation with time ([4]; dogs, 3 mg, 0.5 hr): -11.0%
Blood pressure variation with time ([4]; dogs, 3 mg, 1 hr): -12.3%
Blood pressure variation with time ([4]; dogs, 3 mg, 2 hr): -12.8%
Blood pressure variation with time ([4]; dogs, 3 mg, 4 hr): -9.9%
Blood pressure variation with time ([4]; dogs, 3 mg, 6 hr): -10.1%
Blood pressure variation with time ([4]; dogs, 3 mg, 8 hr): -8.2%
maximum blood pressure lowering effect lasted up to (after the administration) ([4]; dogs, as shown in Table 3): up to 2 hours
